Measurements reported in patent publication US11466044B2 (WAYNE STATE UNIVERSITY, priority 2017, dated 2022).
pIC50: −log10 of the molar value. Values after ≈ are worked out from the molar mass of the structure shown. Where a name gives a salt, the structure may show the parent alone. Read-outs that look alike come from different tables or passages of the source.

Key:
M. abscessus = test: MIC by broth microdilution, M. abscessus; type: cell-based; details: Mycobacteroides abscessus
P aeruginosa = test: MIC by broth microdilution, P aeruginosa isolates; type: cell-based, Pseudomonas aeruginosa; details: for MIC: strain AG220 Pseudomonas aeruginosa ATCC27853, read-out: MIC AG220 P. aerugin
[1] = test system: mitochondrial ribosome (human chimeric); type: biochemical; details: for pIC50: mitochondrial, read-out: IC50 Mit
Description: (§1) The antiribosomal activity of these compounds was investigated with cell-free translation assays using both wild type bacterial ribosomes and hybrid ribosomes carrying eukaryotic decoding A sites enabling the prediction of selectivity.

[2] = test system: cytosolic ribosome (human chimeric); type: biochemical; details: for pIC50: cytosolic, read-out: IC50 Cyt
Description: as §1

[3] = test system: Enterobacter cloacae AG290; test: MIC by broth microdilution, Enterobacter cloacae; type: cell-based; details: strain AG290 Enterobacter cloacae; read-out: MIC AG290 E. cloacae
M. smegmatis SZ380 = test: MIC by broth microdilution, M. smegmatis; details: for MIC: Mycolicibacterium smegmatis
[4] = test system: A1555G mutant mitochondrial ribosome (human chimeric); test: in-vitro translation assay, human chimeric ribosomes, A1555G mutant mitochondrial decoding site; type: biochemical; details: Table 3 (Example 3)
Description: as §1

[5] = test system: Klebsiella pneumonia AG215; test: MIC by broth microdilution, Klebsiella pneumonia; type: cell-based; details: Klebsiella pneumoniae; strain AG215 Klebsiella pneumonia; read-out: MIC AG215 K. pneumon
[6] = test system: E coli carrying specific resistance determinants; test: MIC by broth microdilution, E coli carrying specific resistance determinants; type: cell-based; details: Escherichia coli
E coli wild type = test: MIC by broth microdilution, wild type E coli; type: cell-based; details: for MIC: Escherichia coli
[7] = test system: wild type bacterial ribosomes; test: in-vitro translation assay, bacterial ribosomes; type: biochemical; details: for pIC50: bacterial ribosome, read-out: IC50 Bac
Description: as §1

[8] = test system: Acinetobacter baumannii pittii AG225; test: MIC by broth microdilution, Acinetobacter baumannii; type: cell-based; details: strain AG225 Acinetobacter baumannii pittii
MRSA = test: MIC by broth microdilution, MRSA isolates; type: cell-based; details: for MIC: Staphylococcus aureus, MRSA, Table 1 (Example 3)
N. gonorrhoeae = test: Disk diffusion, N. gonorrhoeae; type: cell-based; details: Neisseria gonorrhoeae
[9] = ATCC25922, strain AG212 E. coli (ATCC25922), read-out: MIC AG212 E. coli

SMILES: CCNC1C(OC2C(N)CC(N)C(O)C2OC2OC(CO)C(OC3OC(CN)C(O)C(O)C3N)C2O)OC(CN)C(O)C1O (stereo not drawn) [Compound 172, 2′-N-Ethyl-neomycin acetate salt]
- MIC (M. abscessus; ATCC19977, ATCC 19977 WT, Table 5 (Example 3), read-out: MIC M. abscessus ATCC 19977 WT): 0.25 µg/mL
- MIC (M. abscessus; read-out: MIC M. abscessus engineered Δeis2): 0.063 µg/mL
- MIC (M. abscessus; ATCC, Table 4 (Example 3), read-out: MIC M. abscessus ATCC): 0.25 µg/mL
- MIC (M. abscessus; Clin. Isol., Table 4 (Example 3), read-out: MIC M. abscessus Clin. Isol.): 0.5 µg/mL
- MIC (P aeruginosa): > 32 µg/mL
- Selectivity for Binding to the Bacterial Ribosome over the Mitochondrial Ribosome ([1]; Table 3 (Example 3)): 850
- pIC50 ([1]; Table 4 (Example 3)): 4.96
- Selectivity for Binding to the Bacterial Ribosome over the Cytosolic Ribosome ([2]; Table 3 (Example 3)): 3111
- pIC50 ([2]; Table 4 (Example 3)): 4.37
- MIC [3]: 0.5 to 1 µg/mL
- MIC (M. smegmatis SZ380; SZ380, read-out: MIC M. smegmatis SZ380 WT, SZ380 WT, Table 5 (Example 3)): < 0.063 µg/mL
- MIC (M. smegmatis SZ380; SZ380, read-out: MIC SZ380 M. smegmatis, strain SZ380 Mycobacterium smegmatis): < 0.0625 µg/mL
- Selectivity for Binding to the Bacterial Ribosome over the Mutant Mitochondrial Ribosome [4]: 111
- MIC [5]: 0.5 µg/mL
- MIC ([6]; read-out: MIC E coli AG106 AAC(2′)): 0.5 µg/mL
- MIC ([6]; read-out: MIC E. coli AAC(2′) AG106): 0.5 µg/mL
- MIC ([6]; read-out: MIC E. coli AAC(2′) pH434): 1 µg/mL
- MIC ([6]; read-out: MIC E. coli AG106 AAC(2′)-Ia): 0.5 µg/mL
- MIC ([6]; read-out: MIC E. coli pGB2armA armA): 1 µg/mL
- MIC ([6]; read-out: MIC E. coli pH434 AAC(2′)-Ib): 1 µg/mL
- MIC (E coli wild type; AG006 Wild type, Table 2 (Example 3), read-out: MIC E coli AG006 Wild type): 0.5 µg/mL
- MIC (E coli wild type; AG104 Wild type, Table 2 (Example 3), read-out: MIC E coli AG104 Wild type): 0.5 µg/mL
- MIC (E coli wild type; [9]): 1 µg/mL
- MIC (E coli wild type; WT, Table 4 (Example 3), read-out: MIC E. coli WT): 0.5 to 1 µg/mL
- MIC (E coli wild type; WT, Table 5 (Example 3), read-out: MIC E. coli WT): 0.5 to 1 µg/mL
- MIC (E coli wild type; clinical isolate AG001, Table 1 (Example 3), read-out: MIC E coli AG001): 1 to 2 µg/mL
- MIC (E coli wild type; clinical isolate AG003, Table 1 (Example 3), read-out: MIC E coli AG003): 1 µg/mL
- MIC (E coli wild type; clinical isolate AG055, Table 1 (Example 3), read-out: MIC E coli AG055): 1 µg/mL
- pIC50 ([7]; Table 4 (Example 3)): 8.00
- selectivity for the bacterial ribosome over mitochondrial (wild type, A1555G mutant) and cytosolic ribosomes, in words ([7]; compared with the parent compound): increased selectivity for the bacterial ribosome
- MIC [8]: 1 µg/mL
- MIC (MRSA; clinical isolate AG038, read-out: MIC MRSA AG038): 0.5 µg/mL
- MIC (MRSA; clinical isolate AG039, read-out: MIC MRSA AG039): > 32 µg/mL
- MIC (MRSA; clinical isolate AG042, read-out: MIC MRSA AG042): > 32 µg/mL
- zone of inhibition at 25 nmol/disc (N. gonorrhoeae): 9 mm

SMILES: CC1CC(O)C2O[C@H](O[C@@H]3C(N)C[C@@H](N)C(O)[C@H]3O[C@@H]3O[C@H](CO)[C@H](O[C@H]4O[C@@H](CN)[C@@H](O)C(O)C4N)C3O)C(N)[C@@H](O)[C@@H]2O1 (stereo partly drawn) [Compound 125, 4-O-(2′-Amino-4′,8′-anhydro-2′,7′,9′-trideoxy-D-threo-α-D-gluco-nonapyranosyl)-5-O-[3-O-(2,6-diamino-2,6-dideoxy-β-L-idopyranosyl)-β-D-ribofuranosyl]-2-deoxystreptamine.5AcOH]
- MIC50 P aeruginosa AG31 (P aeruginosa; strain AG31, Table 1 (Example 2)): 32 µg/mL (≈ 48.8 µM)
- MIC50 P aeruginosa AG32 (P aeruginosa; strain AG32, Table 1 (Example 2)): 16 to 32 µg/mL
- MIC50 P aeruginosa AG33 (P aeruginosa; strain AG33, Table 1 (Example 2)): >128 µg/mL
- MIC50 P aeruginosa AG86 (P aeruginosa; strain AG86, Table 1 (Example 2)): >128 µg/mL
- MIC (P aeruginosa): 8 µg/mL (≈ 12.2 µM)
- pIC50 ([1]; Table 3 (Example 2)): 3.51
- pIC50 ([2]; Table 3 (Example 2)): 4.52
- MIC [3]: 2 µg/mL (≈ 3.05 µM)
- MIC SZ380 M. smegmatis (M. smegmatis SZ380; strain SZ380 Mycobacterium smegmatis): 0.5 µg/mL (≈ 0.763 µM)
- MIC [5]: 2 µg/mL (≈ 3.05 µM)
- MIC50 ([6]; read-out: MIC50 E coli AG07 AAC(3), AG07 AAC(3), Table 2A (Example 2)): 8 µg/mL (≈ 12.2 µM)
- MIC50 ([6]; read-out: MIC50 E coli AG09 AAC(6′), AG09 AAC(6′), Table 2A (Example 2)): 4 µg/mL (≈ 6.1 µM)
- MIC50 ([6]; read-out: MIC50 E coli AG036 ANT(4′,4″), AG036 ANT(4′,4″), Table 2A (Example 2)): 2 to 4 µg/mL (≈ 3.05 to 6.1 µM)
- MIC50 ([6]; read-out: MIC50 E coli AG036 ANT(4′,4″), AG036 ANT(4′,4″), Table 2B (Example 2)): 0.5 µg/mL (≈ 0.763 µM)
- MIC50 ([6]; read-out: MIC50 E coli AG037 APH(3′)-III, AG037 APH(3′)-III, Table 2B (Example 2)): 16 µg/mL (≈ 24.4 µM)
- MIC50 ([6]; read-out: MIC50 E coli AG037 APH(3′,5″), AG037 APH(3′,5″), Table 2A (Example 2)): 32 to 64 µg/mL (≈ 48.8 to 97.6 µM)
- MIC50 ([6]; read-out: MIC50 E coli AG103 ArmA, AG103 ArmA, Table 2A (Example 2)): 4 µg/mL (≈ 6.1 µM)
- MIC50 ([6]; read-out: MIC50 E coli AG103 armA, AG103 armA, Table 2B (Example 2)): 1 to 2 µg/mL (≈ 1.53 to 3.05 µM)
- MIC50 ([6]; read-out: MIC50 E coli AG105 AAC(2′), AG105 AAC(2′), Table 2A (Example 2)): 2 to 4 µg/mL (≈ 3.05 to 6.1 µM)
- MIC50 ([6]; read-out: MIC50 E coli pH414 AAC(6′)-I, pH414 AAC(6′)-I, Table 2B (Example 2)): 1 µg/mL (≈ 1.53 µM)
- MIC50 ([6]; read-out: MIC50 E coli pH415 AAC(6′)-II, pH415 AAC(6′)-II, Table 2B (Example 2)): 1 to 2 µg/mL (≈ 1.53 to 3.05 µM)
- MIC50 ([6]; read-out: MIC50 E coli pH421 APH(3′)-I, pH421 APH(3′)-I, Table 2B (Example 2)): > 32 µg/mL
- MIC50 ([6]; read-out: MIC50 E coli pH422 APH(3′)-II, pH422 APH(3′)-II, Table 2B (Example 2)): 4 µg/mL (≈ 6.1 µM)
- MIC50 ([6]; read-out: MIC50 E coli pH423 APH(3)-VI, pH423 APH(3)-VI, Table 2B (Example 2)): 2 µg/mL (≈ 3.05 µM)
- MIC50 ([6]; read-out: MIC50 E coli pH432 ANT(4′), pH432 ANT(4′), Table 2B (Example 2)): 1 to 2 µg/mL (≈ 1.53 to 3.05 µM)
- MIC ([6]; read-out: MIC AAC(6′)): 1 to 2 µg/mL (≈ 1.53 to 3.05 µM)
- MIC ([6]; read-out: MIC ANT(4′)): 0.5 µg/mL (≈ 0.763 µM)
- MIC ([6]; read-out: MIC APH(3′)-II): 4 µg/mL (≈ 6.1 µM)
- MIC ([6]; read-out: MIC APH(3′)-VI): 2 µg/mL (≈ 3.05 µM)
- MIC50 E coli BM13 (AG06) wt (E coli wild type; BM13 (AG06) wt, Table 2A (Example 2)): 2 µg/mL (≈ 3.05 µM)
- MIC (E coli wild type; [9]): 2 µg/mL (≈ 3.05 µM)
- MIC WT (E coli wild type; WT, Table 3 (Example 2)): 1 to 2 µg/mL
- MIC50 E coli pH430 WT (E coli wild type; pH430 WT, Table 2B (Example 2)): 1-2 μg/ml
- MIC50 E coli AG01 (E coli wild type; strain AG01, Table 1 (Example 2)): 8 µg/mL (≈ 12.2 µM)
- MIC50 E coli AG03 (E coli wild type; strain AG03, Table 1 (Example 2)): 8 µg/mL (≈ 12.2 µM)
- MIC50 E coli AG55 (E coli wild type; strain AG55, Table 1 (Example 2)): 8 µg/mL (≈ 12.2 µM)
- pIC50 ([7]; Table 3 (Example 2)): 7.40
- MIC [8]: 4 µg/mL (≈ 6.1 µM)
- MIC50 MRSA AG38 (MRSA; strain AG38, Table 1 (Example 2)): 8 to 16 µg/mL
- MIC50 MRSA AG39 (MRSA; strain AG39, Table 1 (Example 2)): 8 µg/mL (≈ 12.2 µM)
- MIC50 MRSA AG42 (MRSA; strain AG42, Table 1 (Example 2)): 8 µg/mL (≈ 12.2 µM)
- MIC50 MRSA AG44 (MRSA; strain AG44, Table 1 (Example 2)): 4 µg/mL (≈ 6.1 µM)
- zone of inhibition at 25 nmol/disc (N. gonorrhoeae): 9 mm
